{"source": "EPA's ToxValDB 9.5 (doi:10.2903/j.efsa.2010.1682)", "key": {"Daphnia magna": {"system": "Daphnia magna", "conditions": "chronic/long-term; duration: 21 days; reproduction"}, "Bibionidae": {"system": "Bibionidae", "conditions": "chronic/long-term"}, "Apis mellifera": {"system": "Apis mellifera", "conditions": "acute, duration: 72 hours, mortality"}, "Allium cepa": {"system": "Allium cepa", "conditions": "not reported; seedling emergence"}, "Canidae": {"system": "Canidae", "conditions": "oral, Dog Other, organ weight"}, "Typhlodromus pyri": {"system": "Typhlodromus pyri", "conditions": "not reported"}, "Cucumis sativus": {"system": "Cucumis sativus", "conditions": "not reported; seedling emergence"}}, "data": [{"smiles": "CCCCC(C#N)(Cn1cncn1)c1ccc(Cl)cc1", "note": "(centres undefined) [Myclobutanil]", "values": [{"measurement": "NOEC", "setting": "Daphnia magna", "result": 1, "unit": "mg/L"}, {"measurement": "NOEC", "setting": "Bibionidae", "result": 6.07, "unit": "mg/kg"}, {"measurement": "NOEC", "setting": "Bibionidae; duration: 30 days", "result": 4.98, "unit": "mg/L"}, {"measurement": "LD50", "setting": "Rattus norvegicus; acute, oral, M, mortality", "result": 1600, "unit": "mg/kg-day"}, {"measurement": "NOAEL", "setting": "Rattus norvegicus; chronic, duration: 2 years, histopathology: nonneoplastic", "result": 2.5, "unit": "mg/kg-day"}, {"measurement": "NOAEL", "setting": "Rattus norvegicus; developmental, development", "result": 31, "unit": "mg/kg-day"}, {"measurement": "NOEL", "setting": "Rattus norvegicus; reproduction developmental, reproduction", "result": 16, "unit": "mg/kg-day"}, {"measurement": "LD50", "setting": "Apis mellifera; dermal", "result": "> 39.6", "unit": "µg/piece"}, {"measurement": "LD50", "setting": "Apis mellifera; oral, unspecified", "result": "> 33.9", "unit": "µg/piece"}, {"measurement": "LEL", "setting": "Allium cepa", "result": 300, "unit": "g/ha"}, {"measurement": "NOAEL", "setting": "Canidae; chronic, duration: 1 years", "result": 3.09, "unit": "mg/kg-day"}, {"measurement": "NOAEL", "setting": "Canidae; subchronic, duration: 90 days", "result": 3.09, "unit": "mg/kg-day"}, {"measurement": "LC50", "setting": "Colinus virginianus; acute, oral, diet, mortality", "result": "> 567", "unit": "mg/kg-day"}, {"measurement": "LD50", "setting": "Colinus virginianus; acute, oral, mortality", "result": 510, "unit": "mg/kg-day"}, {"measurement": "NOEC", "setting": "Colinus virginianus; reproduction developmental", "result": 24.2, "unit": "mg/kg-day"}, {"measurement": "LEL", "setting": "Typhlodromus pyri; mortality", "result": 36, "unit": "g/ha"}, {"measurement": "LEL", "setting": "Typhlodromus pyri; reproduction", "result": 36, "unit": "g/ha"}, {"measurement": "LC50", "setting": "Oncorhynchus mykiss; acute, duration: 96 hours, mortality", "result": 2, "unit": "µg/mL"}, {"measurement": "NOEC", "setting": "Oncorhynchus mykiss; chronic/long-term, duration: 21 days, growth", "result": 0.2, "unit": "mg/L"}, {"measurement": "NOEC", "setting": "Anas platyrhynchos; reproductive", "result": 31.6, "unit": "mg/kg-day"}, {"measurement": "LC50", "setting": "Anas platyrhynchos; short-term, oral, feed, mortality", "result": "> 1540", "unit": "mg/kg-day"}, {"measurement": "LC50", "setting": "Tagia sp.; acute, mortality", "result": 250, "unit": "mg/kg"}, {"measurement": "NOEC", "setting": "Tagia sp.; chronic/long-term", "result": 10.3, "unit": "mg/kg"}, {"measurement": "LEL", "setting": "Cucumis sativus", "result": 300, "unit": "g/ha"}]}]}
